ChEMBL document CHEMBL1201862, “PubChem BioAssay data set” (2004)
Activity calls are given as the source filed them.

Assays:
[1] = target: T1, Zinc finger protein mex-5 (Caenorhabditis elegans, UniProt Q9XUB2); test: potency of MEX-5 RNA-binding blockers – biochemical, C. elegans, fluorescence polarization, dose response (AID 1960)
T1 sequence (Q9XUB2 whole entry): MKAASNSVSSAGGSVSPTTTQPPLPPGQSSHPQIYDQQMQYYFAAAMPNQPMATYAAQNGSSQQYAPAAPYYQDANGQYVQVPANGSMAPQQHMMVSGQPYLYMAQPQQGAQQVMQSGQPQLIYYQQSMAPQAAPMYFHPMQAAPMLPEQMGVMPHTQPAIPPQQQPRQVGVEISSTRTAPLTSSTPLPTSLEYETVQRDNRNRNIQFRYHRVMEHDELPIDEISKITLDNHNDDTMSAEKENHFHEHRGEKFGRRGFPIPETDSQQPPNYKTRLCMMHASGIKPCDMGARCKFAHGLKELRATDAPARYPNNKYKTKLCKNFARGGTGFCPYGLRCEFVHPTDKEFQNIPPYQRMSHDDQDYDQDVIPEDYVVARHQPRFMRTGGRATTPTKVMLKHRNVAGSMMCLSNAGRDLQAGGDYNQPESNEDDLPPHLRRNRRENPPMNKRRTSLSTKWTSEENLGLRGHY

[2] = target: T2, RNA-binding protein pos-1 (Caenorhabditis elegans, UniProt G5EF15); test: disruptors of C. elegans POS-1 RNA interaction – biochemical, fluorescence polarization, dose response (AID 1964);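 also: purified POS-1 fused to maltose binding protein made in E. coli; potency of compounds blocking POS-1 binding to fluorescent RNA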
T2 sequence (G5EF15 whole entry): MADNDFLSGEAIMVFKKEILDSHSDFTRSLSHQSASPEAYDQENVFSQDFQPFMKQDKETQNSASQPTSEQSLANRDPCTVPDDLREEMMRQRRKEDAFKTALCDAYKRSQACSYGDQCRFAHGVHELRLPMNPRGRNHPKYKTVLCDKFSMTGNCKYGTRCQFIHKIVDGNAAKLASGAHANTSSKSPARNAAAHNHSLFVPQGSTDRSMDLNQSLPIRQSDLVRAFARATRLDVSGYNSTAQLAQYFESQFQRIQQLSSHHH

[3] = target: T3, ORF 73 (Human herpesvirus 8, UniProt O40947); test: KSHV LANA DNA-binding disruption – biochemical, fluorescence polarization, cherry-picked samples, dose response (AID 504725); set-up: species or system Human gammaherpesvirus 8;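 also: fluorescence polarization of a labeled DNA duplex reporting LANA DNA binding; potency is for inhibitors that block LANA binding to the DNA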
T3 sequence (O40947 whole entry): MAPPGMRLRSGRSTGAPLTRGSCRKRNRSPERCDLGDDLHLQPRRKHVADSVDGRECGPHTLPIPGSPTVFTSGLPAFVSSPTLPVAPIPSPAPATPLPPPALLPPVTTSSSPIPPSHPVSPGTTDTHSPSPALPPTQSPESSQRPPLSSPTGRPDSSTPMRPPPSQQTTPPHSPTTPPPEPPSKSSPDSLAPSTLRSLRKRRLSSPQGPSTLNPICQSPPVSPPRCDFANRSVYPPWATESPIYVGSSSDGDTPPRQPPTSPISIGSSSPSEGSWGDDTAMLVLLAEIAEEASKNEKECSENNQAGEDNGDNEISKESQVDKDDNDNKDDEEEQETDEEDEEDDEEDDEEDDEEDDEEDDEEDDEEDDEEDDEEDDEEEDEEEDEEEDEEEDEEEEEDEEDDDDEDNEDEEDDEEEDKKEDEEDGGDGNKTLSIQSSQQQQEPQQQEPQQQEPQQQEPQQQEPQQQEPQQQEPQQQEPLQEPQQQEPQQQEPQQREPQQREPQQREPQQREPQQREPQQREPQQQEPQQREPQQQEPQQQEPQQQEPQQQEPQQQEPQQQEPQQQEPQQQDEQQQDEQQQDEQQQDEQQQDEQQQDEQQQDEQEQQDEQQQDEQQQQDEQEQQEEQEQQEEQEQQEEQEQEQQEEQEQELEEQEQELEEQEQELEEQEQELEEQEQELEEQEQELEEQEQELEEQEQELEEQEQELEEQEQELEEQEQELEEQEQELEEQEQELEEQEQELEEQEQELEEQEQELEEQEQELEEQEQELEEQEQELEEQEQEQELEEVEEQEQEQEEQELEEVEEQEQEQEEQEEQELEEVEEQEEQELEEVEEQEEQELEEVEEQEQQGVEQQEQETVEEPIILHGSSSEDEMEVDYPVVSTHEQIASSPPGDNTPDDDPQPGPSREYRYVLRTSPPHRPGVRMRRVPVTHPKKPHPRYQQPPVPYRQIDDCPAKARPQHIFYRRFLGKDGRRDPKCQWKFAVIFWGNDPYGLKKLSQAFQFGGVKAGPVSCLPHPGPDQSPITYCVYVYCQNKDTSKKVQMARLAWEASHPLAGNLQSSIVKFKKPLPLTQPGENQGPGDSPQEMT

[4] = target: UDP-galactopyranose mutase (Mycobacterium tuberculosis, UniProt P9WIQ1); test: Inhibitors of Mycobacterium tuberculosis UDP-galactopyranose mutase (UGM) enzyme Measured in Biochemical System Using Plate Reader - 2105-02_Inhibitor_Dose_CherryPick_Activity. [Related pubchem assays (depositor defined):AID504439]
[5] = target: Mu-type opioid receptor (Homo sapiens, UniProt P35372); test: (§1) Counterscreen for agonists of heterodimerization of the mu 1 (OPRM1) and delta 1 (OPRD1) opioid receptors: Luminescence-based cell-based high throughput dose response assay to identify agonists of OPRM1 homodimerization.; type: functional
[6] = target: 5-hydroxytryptamine receptor 5A (Homo sapiens, UniProt P47898); test: Counterscreen for agonists of OPRM1-OPRD1 heterodimerization: luminescence-based cell-based high throughput dose response assay to identify agonists of 5-hydroxytryptamine (serotonin) 5A receptor (HTR5A). [Related pubchem assays (depositor defined):AID504326, AID504355, AID504692, AID504904, AID504905]; type: functional
[7] = target: Opioid receptors; mu & delta (Homo sapiens, UniProt P41143+P35372); test: OPRM1-OPRD1 heterodimer agonist potency – cell-based, luminescence, dose response (AID 588407); type: functional
[8] = target: Delta-type opioid receptor (Homo sapiens, UniProt P41143); test: as §1, with “of OPRD1” for “of OPRM1”, “homodimerization. [Related pubchem assays (depositor defined):AID504326, AID504355, AID504692, AID504904, AID504905]” for “homodimerization.”; type: functional
[9] = test system: Escherichia coli; test: microbe, parasite or virus in culture
[10] = test system: Escherichia coli; test: microbe, parasite or virus in culture; remark: listed apart in the source
[11] = target: Genome polyprotein (dengue virus type 2, UniProt P29990); test: flavivirus cap methylation enzyme inhibition – biochemical, confirmation dose response, primary screen (AID 588689); type: functional
[12] = target: Nonstructural protein 1 (Influenza A virus, UniProt Q194T2); type: functional, Influenza A virus (A/California/07/2009(H1N1))
[13] = target: Beta-galactosidase (Escherichia coli, UniProt Q8VNN2); test: detection-enzyme interference by beta-gal modulators – biochemical, E. coli enzyme, set 3, artefact control for CCR6 antagonist project, dose response (AID 504712); type: functional
[14] = target: T4, Hexokinase HKDC1 (Homo sapiens, UniProt Q2TB90); test: inhibition of HKDC1 glucose phosphorylation – biochemical, W721R variant, dose response (AID 504729); type: functional
T4 sequence (Q2TB90 whole entry): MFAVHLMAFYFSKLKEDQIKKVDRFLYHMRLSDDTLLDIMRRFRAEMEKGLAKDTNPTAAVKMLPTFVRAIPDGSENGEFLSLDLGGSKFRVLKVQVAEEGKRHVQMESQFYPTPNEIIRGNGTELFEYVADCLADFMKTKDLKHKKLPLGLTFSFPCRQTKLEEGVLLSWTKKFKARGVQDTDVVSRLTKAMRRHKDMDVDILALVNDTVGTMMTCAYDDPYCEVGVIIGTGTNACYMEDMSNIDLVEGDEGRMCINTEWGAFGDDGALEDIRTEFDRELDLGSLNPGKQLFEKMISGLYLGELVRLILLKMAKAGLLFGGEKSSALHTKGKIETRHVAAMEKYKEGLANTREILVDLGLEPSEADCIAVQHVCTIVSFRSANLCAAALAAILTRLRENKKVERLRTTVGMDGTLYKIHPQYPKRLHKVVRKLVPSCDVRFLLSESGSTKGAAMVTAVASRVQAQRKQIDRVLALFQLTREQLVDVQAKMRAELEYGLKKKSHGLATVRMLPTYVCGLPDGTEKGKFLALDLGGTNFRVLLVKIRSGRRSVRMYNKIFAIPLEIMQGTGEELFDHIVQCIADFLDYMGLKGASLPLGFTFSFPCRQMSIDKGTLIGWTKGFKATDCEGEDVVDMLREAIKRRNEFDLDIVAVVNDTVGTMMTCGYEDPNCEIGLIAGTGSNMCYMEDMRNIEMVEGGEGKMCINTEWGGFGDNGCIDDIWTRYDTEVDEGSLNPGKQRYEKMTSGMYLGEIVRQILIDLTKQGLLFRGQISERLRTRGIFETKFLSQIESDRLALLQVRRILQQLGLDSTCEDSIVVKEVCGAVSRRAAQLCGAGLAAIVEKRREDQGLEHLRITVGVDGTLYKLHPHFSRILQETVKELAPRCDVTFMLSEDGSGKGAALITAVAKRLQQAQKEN

[15] = target: Glucose-6-phosphate 1-dehydrogenase (Homo sapiens, UniProt P11413); test: inhibition of Homo sapiens G6PD, dose series – biochemical, fluorescence, selectivity assay for P. falciparum G6PD inhibitor project, dose response (AID 504792); type: functional
[16] = viability loss in THP-1 monocytes – THP-1 cells, cytotoxicity control for Vif-APOBEC3G degradation inhibitor project, dose response (AID 1117359); type: functional; conditions: THP-1
[17] = target: T5, Histone-lysine N-methyltransferase NSD2 (Homo sapiens, UniProt O96028); type: biochemical
T5 sequence (O96028 whole entry): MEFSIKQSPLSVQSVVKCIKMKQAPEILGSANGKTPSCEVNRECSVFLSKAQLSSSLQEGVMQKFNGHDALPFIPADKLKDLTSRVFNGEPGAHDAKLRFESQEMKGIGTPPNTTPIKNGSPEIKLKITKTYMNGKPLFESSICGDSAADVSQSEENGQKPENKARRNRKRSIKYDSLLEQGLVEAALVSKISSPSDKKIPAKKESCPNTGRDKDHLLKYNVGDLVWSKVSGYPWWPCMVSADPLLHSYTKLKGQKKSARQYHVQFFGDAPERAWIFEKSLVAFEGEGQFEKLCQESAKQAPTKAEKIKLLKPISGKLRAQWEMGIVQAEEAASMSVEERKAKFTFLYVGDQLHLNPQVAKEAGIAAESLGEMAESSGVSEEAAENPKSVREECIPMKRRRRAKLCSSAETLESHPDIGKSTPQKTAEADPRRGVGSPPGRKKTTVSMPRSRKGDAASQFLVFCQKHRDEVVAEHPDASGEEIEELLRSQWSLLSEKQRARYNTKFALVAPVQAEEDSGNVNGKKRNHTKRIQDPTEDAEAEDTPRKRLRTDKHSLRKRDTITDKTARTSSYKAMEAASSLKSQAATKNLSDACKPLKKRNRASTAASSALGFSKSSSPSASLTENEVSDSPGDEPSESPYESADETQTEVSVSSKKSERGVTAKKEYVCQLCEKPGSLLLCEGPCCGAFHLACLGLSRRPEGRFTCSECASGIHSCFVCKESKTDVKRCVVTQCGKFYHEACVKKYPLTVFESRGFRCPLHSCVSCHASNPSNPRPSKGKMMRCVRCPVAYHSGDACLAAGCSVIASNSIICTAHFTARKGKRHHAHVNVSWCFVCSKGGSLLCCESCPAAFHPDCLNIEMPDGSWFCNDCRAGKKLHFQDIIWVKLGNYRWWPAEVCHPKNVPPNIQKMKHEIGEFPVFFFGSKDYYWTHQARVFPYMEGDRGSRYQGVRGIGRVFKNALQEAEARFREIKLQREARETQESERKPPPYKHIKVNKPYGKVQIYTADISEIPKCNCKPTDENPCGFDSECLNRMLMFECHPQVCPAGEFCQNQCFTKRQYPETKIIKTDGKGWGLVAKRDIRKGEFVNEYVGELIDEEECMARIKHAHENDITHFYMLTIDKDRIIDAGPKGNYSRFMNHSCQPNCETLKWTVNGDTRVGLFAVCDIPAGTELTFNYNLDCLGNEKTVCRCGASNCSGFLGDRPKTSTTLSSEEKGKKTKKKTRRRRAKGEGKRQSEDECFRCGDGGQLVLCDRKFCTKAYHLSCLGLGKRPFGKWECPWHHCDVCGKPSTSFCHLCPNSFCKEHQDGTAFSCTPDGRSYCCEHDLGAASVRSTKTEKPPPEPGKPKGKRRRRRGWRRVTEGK

[18] = test system: Vero; test: viability of Vero cells under compound – cytotoxicity control for flavivirus capping enzyme inhibitors (AID 588742); type: functional; conditions: Chlorocebus sabaeus

Nonstructural protein 1, sequence (Q194T2 whole entry): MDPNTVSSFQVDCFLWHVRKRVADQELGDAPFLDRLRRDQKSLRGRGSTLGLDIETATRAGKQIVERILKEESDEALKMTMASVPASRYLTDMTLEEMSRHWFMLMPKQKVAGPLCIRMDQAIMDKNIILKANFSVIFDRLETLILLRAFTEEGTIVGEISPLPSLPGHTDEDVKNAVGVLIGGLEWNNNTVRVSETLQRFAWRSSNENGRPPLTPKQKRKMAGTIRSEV
Beta-galactosidase, sequence (Q8VNN2 whole entry): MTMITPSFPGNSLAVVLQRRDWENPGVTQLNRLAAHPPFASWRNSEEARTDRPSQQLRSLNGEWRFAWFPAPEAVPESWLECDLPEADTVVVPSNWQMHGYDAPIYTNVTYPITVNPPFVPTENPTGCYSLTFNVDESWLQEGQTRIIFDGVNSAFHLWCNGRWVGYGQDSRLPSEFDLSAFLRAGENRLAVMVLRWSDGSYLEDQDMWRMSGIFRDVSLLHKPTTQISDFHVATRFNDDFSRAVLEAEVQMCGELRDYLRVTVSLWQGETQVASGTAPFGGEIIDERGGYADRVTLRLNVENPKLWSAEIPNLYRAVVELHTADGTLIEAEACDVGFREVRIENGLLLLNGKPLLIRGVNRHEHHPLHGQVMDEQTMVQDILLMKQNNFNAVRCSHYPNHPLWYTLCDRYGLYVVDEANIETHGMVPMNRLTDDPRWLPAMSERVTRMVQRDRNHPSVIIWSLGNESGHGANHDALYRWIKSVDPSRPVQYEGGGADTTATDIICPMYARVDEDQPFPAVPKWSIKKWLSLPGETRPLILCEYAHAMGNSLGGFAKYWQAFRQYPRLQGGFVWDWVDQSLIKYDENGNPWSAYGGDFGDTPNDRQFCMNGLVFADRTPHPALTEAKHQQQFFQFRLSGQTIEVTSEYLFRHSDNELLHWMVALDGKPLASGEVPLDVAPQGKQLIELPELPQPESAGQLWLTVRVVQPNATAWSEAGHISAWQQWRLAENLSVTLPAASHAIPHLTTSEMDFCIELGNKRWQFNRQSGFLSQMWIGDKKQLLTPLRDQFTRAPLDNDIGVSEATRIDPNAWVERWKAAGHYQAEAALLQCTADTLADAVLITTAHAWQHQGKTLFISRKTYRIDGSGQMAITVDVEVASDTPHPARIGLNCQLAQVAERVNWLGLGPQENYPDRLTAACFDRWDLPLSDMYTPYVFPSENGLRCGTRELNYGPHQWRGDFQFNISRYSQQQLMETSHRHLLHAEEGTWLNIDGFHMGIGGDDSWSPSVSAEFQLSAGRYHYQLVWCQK
Genome polyprotein, sequence (P29990 2492-3391 limits assumed): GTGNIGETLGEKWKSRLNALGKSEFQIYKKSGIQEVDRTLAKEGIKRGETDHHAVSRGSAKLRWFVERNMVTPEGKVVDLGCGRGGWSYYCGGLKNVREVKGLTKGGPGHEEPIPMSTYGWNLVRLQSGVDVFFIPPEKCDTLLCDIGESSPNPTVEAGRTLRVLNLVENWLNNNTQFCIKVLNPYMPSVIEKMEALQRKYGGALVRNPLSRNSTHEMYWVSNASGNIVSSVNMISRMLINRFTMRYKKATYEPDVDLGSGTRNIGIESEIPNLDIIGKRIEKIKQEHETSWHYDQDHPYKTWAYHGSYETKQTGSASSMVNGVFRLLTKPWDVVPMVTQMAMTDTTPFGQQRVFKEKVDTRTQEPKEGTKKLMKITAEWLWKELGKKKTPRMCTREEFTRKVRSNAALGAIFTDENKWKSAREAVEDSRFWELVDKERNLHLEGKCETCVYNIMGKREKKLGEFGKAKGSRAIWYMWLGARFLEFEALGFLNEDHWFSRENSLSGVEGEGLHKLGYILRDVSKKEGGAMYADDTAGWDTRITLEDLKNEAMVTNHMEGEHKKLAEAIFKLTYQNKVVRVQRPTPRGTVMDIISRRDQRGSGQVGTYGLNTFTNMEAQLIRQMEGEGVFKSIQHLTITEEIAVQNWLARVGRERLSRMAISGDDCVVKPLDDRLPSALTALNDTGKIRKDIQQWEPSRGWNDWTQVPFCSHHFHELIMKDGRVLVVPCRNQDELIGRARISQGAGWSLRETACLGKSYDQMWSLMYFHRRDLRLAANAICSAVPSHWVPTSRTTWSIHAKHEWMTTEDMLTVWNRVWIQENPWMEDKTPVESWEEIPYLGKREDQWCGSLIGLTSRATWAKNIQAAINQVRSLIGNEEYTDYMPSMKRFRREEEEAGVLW
Delta-type opioid receptor, sequence (P41143 whole entry): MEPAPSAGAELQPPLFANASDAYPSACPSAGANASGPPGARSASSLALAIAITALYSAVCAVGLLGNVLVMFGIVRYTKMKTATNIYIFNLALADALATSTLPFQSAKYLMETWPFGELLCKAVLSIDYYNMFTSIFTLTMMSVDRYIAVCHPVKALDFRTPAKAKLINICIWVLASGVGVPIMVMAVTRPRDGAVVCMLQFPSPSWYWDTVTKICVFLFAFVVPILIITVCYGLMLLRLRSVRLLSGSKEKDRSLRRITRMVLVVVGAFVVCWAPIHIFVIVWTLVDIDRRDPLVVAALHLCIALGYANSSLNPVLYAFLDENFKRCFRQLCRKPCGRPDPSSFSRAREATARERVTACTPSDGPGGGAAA
5-hydroxytryptamine receptor 5A, sequence (P47898 whole entry): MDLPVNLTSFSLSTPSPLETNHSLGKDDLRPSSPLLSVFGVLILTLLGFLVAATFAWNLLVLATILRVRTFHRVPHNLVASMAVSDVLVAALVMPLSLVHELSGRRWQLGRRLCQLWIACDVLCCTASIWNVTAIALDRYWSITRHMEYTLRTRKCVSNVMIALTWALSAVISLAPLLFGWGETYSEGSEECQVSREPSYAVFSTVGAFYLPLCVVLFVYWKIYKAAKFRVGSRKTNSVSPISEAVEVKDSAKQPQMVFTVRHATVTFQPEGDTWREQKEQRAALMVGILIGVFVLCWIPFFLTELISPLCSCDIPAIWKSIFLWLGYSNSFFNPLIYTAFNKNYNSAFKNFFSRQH
Glucose-6-phosphate 1-dehydrogenase, sequence (P11413 whole entry): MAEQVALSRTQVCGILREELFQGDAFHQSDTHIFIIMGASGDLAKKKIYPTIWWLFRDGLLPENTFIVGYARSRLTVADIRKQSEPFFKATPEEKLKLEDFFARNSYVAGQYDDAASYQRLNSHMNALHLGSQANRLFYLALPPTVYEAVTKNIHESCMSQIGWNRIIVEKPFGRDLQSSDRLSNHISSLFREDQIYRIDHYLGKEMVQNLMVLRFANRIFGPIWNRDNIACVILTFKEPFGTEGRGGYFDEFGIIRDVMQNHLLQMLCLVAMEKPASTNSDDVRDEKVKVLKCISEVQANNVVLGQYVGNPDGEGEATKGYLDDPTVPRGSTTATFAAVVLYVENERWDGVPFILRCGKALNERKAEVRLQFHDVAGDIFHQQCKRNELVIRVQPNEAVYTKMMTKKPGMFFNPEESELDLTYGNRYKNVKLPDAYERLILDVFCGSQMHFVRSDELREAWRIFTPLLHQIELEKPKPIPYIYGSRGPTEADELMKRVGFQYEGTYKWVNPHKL
Mu-type opioid receptor, sequence (P35372 whole entry): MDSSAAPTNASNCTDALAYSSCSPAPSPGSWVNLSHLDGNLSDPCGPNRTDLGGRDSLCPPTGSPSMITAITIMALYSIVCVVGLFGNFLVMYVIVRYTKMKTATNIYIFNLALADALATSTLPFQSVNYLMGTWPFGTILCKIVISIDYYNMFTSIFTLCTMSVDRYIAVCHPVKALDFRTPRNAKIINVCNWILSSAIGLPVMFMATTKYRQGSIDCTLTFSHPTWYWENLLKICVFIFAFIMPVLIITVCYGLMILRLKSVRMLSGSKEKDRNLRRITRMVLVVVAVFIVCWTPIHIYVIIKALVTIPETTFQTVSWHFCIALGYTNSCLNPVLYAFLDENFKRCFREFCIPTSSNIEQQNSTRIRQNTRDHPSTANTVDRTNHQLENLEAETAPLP
UDP-galactopyranose mutase, sequence (P9WIQ1 whole entry): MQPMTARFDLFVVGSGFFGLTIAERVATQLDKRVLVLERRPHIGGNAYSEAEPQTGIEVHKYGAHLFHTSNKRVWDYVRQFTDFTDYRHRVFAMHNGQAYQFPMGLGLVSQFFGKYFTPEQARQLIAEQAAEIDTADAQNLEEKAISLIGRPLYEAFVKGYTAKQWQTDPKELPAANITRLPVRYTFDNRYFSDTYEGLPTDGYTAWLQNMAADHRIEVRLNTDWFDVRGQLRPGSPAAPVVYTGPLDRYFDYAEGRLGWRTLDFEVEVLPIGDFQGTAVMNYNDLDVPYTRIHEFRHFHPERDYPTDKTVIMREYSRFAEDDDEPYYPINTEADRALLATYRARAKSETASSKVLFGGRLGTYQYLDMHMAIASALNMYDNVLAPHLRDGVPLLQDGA

In the case of `Cc1ccc(C)c(N2CCN(C(=O)c3cc4ccccn4n3)CC2)c1`, the EC50 [1] is reported as 33.7 µM (active), the EC50 [2] is reported as 72.9 µM (active) and the AC50 [3] is reported as 269 µM (active). The AC50 [4] was 177 µM (active).

With `COc1ccc(NC(=O)COc2ccccc2C(=O)NCC(c2ccccc2)N(C)C)cc1Cl` (stereo not drawn) the EC50 [5] was > 92.5 µM (inactive), the EC50 [6] was > 92.5 µM (inactive) and the EC50 [7] was greater than 3.425 µM. For the same compound, the EC50 [8] was 9.79 µM (active).

For `Cc1nn(C)cc1S(=O)(=O)Nc1ccccc1Br`, the AC50 [9] was 66.8 µM (active) and the AC50 [10] was 65.8 µM (active).

In the case of `CC1COCC(C)N1C1=C(Cl)C(=O)c2ccccc2C1=O` (stereo not drawn), the IC50 [11] is reported as 16.2 µM (active), the IC50 [12] is reported as 17.9 µM (active) and the IC50 [13] is reported as > 66.6 µM (inactive). The IC50 [14] was > 80 µM (inactive), the IC50 [15] was 72.9 µM (inactive) and the CC50 [16] was 16.1 µM (active). For the same compound, the AC50 [17] was 0.873 µM (active) and the CC50 [18] was 23.4 µM (active).
